Measurements published in patent US20080280953A1, “Agents Used for the Treatment of Seeds” (Bayer Cropscience AG, priority 2004, published 2008).
“And” between values parts separate entries of the source, which are not always exact repeats. Equal entries are not always repeated.

Assays:
Format in all cases: in vivo
[1] = tested on: adults of the Colorado beetle (Leptinotarsa decemlineata); assay: Leptinotarsa decemlineata adults test; details: 60 g/ha, spray on potato leaves
Protocol: (§1) To prepare a suitable active compound preparation 1 part by weight of the active compound is mixed with the given amount of solvent and emulsifier and the concentrate is diluted to the desired concentration with water containing emulsifier.
Leaves of potato plant (Solanum tuberosum) that are infested with adults of the Colorado beetle, (Leptinotarsa decemlineata) are treated by spraying with the active compound at the desired concentration.
After the desired time the activity in % is determined. Here 100% means that all beetles were killed; 0% means that no beetles were killed.

[2] = tested on: mixed thrips population (Frankliniella occidentalis); assay: Frankliniella occidentalis test, spraying of cotton plants; details: 100 ppm, spray on cotton plants
Protocol: as §1
Cotton plants (Gossypium hirsutum) are treated by spraying with the active compound preparation at the desired concentration and infected with a mixed thrips population (Frankliniella occidentalis).
After the desired time the activity in % is determined. Here 100% means that all thrips were killed; 0% means that no thrips were killed.

[3] = tested on: black bean aphid (Aphis fabae); assay: Aphis fabae test (seed application), Example J; details: 90 g ai/unit (100,000 seeds), sugar beet seed treatment
Protocol: (§2) To prepare a suitable active compound preparation 1 part by weight of the active compound is mixed with the given amount of solvent and emulsifier and the concentrate is diluted to the desired concentration with water.
Sugar beet seed (Beta vulgaris) is treated with the active compound preparation and sown into soil. After ca. 4 week the beet plants are infected with the black bean aphid (Aphis fabae).
(§3) After the desired time the death rate in % is determined. Here 100% means that all aphids were killed; 0% means that no aphids were killed.

[4] = tested on: caterpillars of the fall army worm (Spodoptera frugiperda); assay: Spodoptera frugiperda test (spray treatment); details: 500 g/ha; spray on maize leaf sections; after 7 d
Protocol: as §1
Maize leaf sections (Zea mays) are sprayed with an active compound preparation at the desired concentration and after drying treated with caterpillars of the fall army worm (Spodoptera frugiperda).
After the desired time the activity in % is determined. Here 100% means that all caterpillars were killed; 0% means that no caterpillars were killed.

[5] = tested on: white fly (Bemisia tabaci, resistant strain); assay: Bemisia tabaci test (resistant strain), cotton leaf dip; details: 1000 ppm
Protocol: as §1
Leaf sections of the cotton plant (Gossypium hirsutum) are treated by dipping in the active compound preparation at the desired concentration and after drying of the coating are infected with adults of the white fly (Bemisia tabaci, resistant strain).
(§4) After the desired time the death rate in % is determined. Here 100% means that all animals were killed; 0% means that no animals were killed.

[6] = tested on: leafminer fly (Liriomyza trifolii) larvae; assay: Liriomyza trifolii test, spraying of kidney bean plants; details: 100 ppm, spray on kidney bean plants
Protocol: as §1
Kidney bean plants (Phaseolus vulgaris) that are infected with the larvae of the leafminer fly (Liriomyza trifolii) are treated by spraying with the active compound mixture at the desired concentration.
After the desired time the activity in % is determined.

[7] = tested on: horse chestnut scale (Pulvinaria regalis); assay: Pulvinaria regalis test, preparation poured onto chestnut trees (Example C1); details: 10 mg per plant, poured on
Protocol: as §2
The active compound preparation was poured onto chestnut trees (Castanea vesca). The concentration given relates to the amount of active compound per plant. After a defined time infection was carried out with horse chestnut scale (Pulvinaria regalis).
as §4

[8] = tested on: mealy cabbage aphid (Brevicoryne brassicae); assay: Brevicoryne brassicae test, open land (spray treatment), Example M1; details: 300 g/ha, spray on cabbage plants
Protocol: (§5) To prepare a suitable active compound preparation 1 part by weight of the active compound is mixed with the given amount of water to the desired concentration.
Cabbage plants (Brassica oleracea) that are infested with all stages of the mealy cabbage aphid (Brevicoryne brassicae) are sprayed with an active compound preparation at the desired concentration.
After the desired time the death rate in % is determined. Here 100% means that all nymphs were killed; 0% means that no nymphs were killed.

[9] = tested on: caterpillars of the fall army worm (Spodoptera frugiperda); assay: Spodoptera frugiperda test, treated soil (Example A1); details: 4 ppm in soil, cotton plant
Protocol: as §2
The active compound preparation is mixed with earth. The concentration given relates to the amount of active compound per unit volume soil (mg/l=ppm). The treated earth is filled into pots and planted with a cotton plant (Gossypium hirsutum). After a week infection is carried out with caterpillars of the fall army worm (Spodoptera frugiperda).
After the desired time the activity in % is determined. Here 100% means that no eating damage is visible, 0% means that eating damage on the treated plants corresponds to that of the controls.

[10] = tested on: adult Ctenocephalides felis, strain "Georgi"; assay: Test with cat fleas/oral administration; details: 100 ppm in citrated bovine blood
Protocol: To prepare a suitable formulation a suitable active compound solution was prepared from 10 mg active compound with 0.5 ml DMSO. 10 μl of this formulation was added to 2 ml citrated bovine blood and stirred.
20 fasting adult fleas (Ctenocephalides felis, strain “Georgi”) were placed in a chamber (Ø5 cm) that is closed with cheese cloth at the top and bottom. A metal cylinder the underside of which is closed with Parafilm is placed on the chamber. The cylinder contains the 2 ml blood-active compound formulation which can be consumed by the fleas through the Parafilm membrane.
Whilst the blood is warmed to 37° C. the region of the flea chamber is at room temperature. Controls were carried out with the same volume of DMSO without compound addition.
After the desired time the death rate in % is determined. Here 100% means that all fleas were killed; 0% means that no fleas were killed.

[11] = tested on: cotton aphid (Aphis gossypii); assay: Aphis gossypii test (soil application); details: 4 ppm in soil, cotton plant
Protocol: as §2
The active compound mixture was mixed with soil. The concentration given refers to amount of active compound per volume unit of soil (mg/l=ppm). Pots are filled with the treated earth and planted with a cotton plant (Gossypium hirsutum). After one week the plants are infected with the cotton aphid (Aphis gossypii).
as §3

[12] = tested on: adults of the green stink bug (Piezodorus guildingi); assay: Piezodorus guildingi test, open land (spray treatment); details: 300 g/ha, soy bean plants
Protocol: as §5
Soy bean plants (Glycine max) infested with the adults of the green stink bug (Piezodorus guildingi) are treated with an active compound preparation at the desired concentration.
After the desired time the death rate in % is determined. Here 100% means that all bugs were killed; 0% means that no bugs were killed.

[13] = tested on: white fly (Bemisia tabaci), normal sensitive strain; assay: Bemisia tabaci test (normal sensitive strain), spraying of infested cotton plants; details: 100 ppm, spray on cotton plants
Protocol: as §1
Cotton plants (Gossypium hirsutum) that are infested with eggs, larvae and pupae of the white fly (Bemisia tabaci) are treated by, spraying with the active compound preparation at the desired concentration.
as §4

[14] = tested on: cotton aphid (Aphis gossypii); assay: Aphis gossypii test (seed application); details: 4 g ai/ha, cotton seed treatment
Protocol: as §2
Cotton seeds (Gossypium hirsutum) are treated with the active compound preparation and sown into soil. After ca. 2 week the cotton plants are infected with the cotton aphid (Aphis gossypii). After the desired time the death rate in % is determined. Here 100% means that all aphids were killed; 0% means that no aphids were killed.

SMILES	activity after 7 days [1] [%]	Activity in % after 14 d [2] [%]	Activity in % after 7 d [3] [%]	Death rate in % after 7 d [4] [%]	Death rate in % after 3 d [5] [%]	Activity in % after 7 d [6]	death rate after 30 days [7] [%]	death rate after 28 days [8] [%]	activity (eating damage) after 7 days [9] [%]	death rate after 2 days [10] [%]	Activity in % after 7 d [11] [%]	death rate after 11 days [12] [%]	Death rate in % after 14 d [13] [%]	Activity in % after 7 d [14] [%]
CN(Cc1ccc(Cl)nc1)C1=CC(=O)OC1 [Compound 84]	100	99	100	100	78	55% and 46%	100	96	98	100	100	100	100	100
O=C1C=C(N(Cc2ccc(Cl)nc2)C2CC2)CO1 [Compound 88]	100	99		100				99			100			100
